Assay: Phase 1 study: safety and tolerability (adverse events, vital signs, ECG, laboratory tests, compliance) of oral ferric maltol
Settings: for Patients With an AE: Any AE: safety population
From the text: This phase 1, randomized, open-label, parallel-group pharmacokinetic study involved children seen as outpatients at 6 centers in the UK: Alder Hey Children’s NHS Foundation Trust; King’s College Hospital NHS Foundation Trust; University Hospitals of Leicester NHS Trust; Nottingham University Hospitals NHS Trust; Manchester University NHS Foundation Trust; and University College London Hospitals NHS Foundation Trust. […] Children aged 16 years or older and parents or guardians of children younger than 16 years provided written informed consent to participate before study initiation.
Children aged 10–17 years with confirmed iron deficiency at screening (defined as either ferritin <30 µg/L or ferritin <50 µg/L with transferrin saturation [TSAT] <20%) were eligible for inclusion in the study. Patients with or without anemia could be enrolled, provided hemoglobin was ≥8.5 g/dL at screening. Girls of childbearing potential had to agree to use adequate contraception during and until 4 weeks after the end of the study.
The study comprised a screening period followed by a 10-day randomized treatment period and a post-treatment safety follow-up. Children were randomized 1:1:1 (stratified by age [10–14 vs 15–17 years] and sex) to ferric maltol 7.8 mg, 16.6 mg, or 30 mg twice daily (b.d.) for 9 days and once in the morning of day 10. The first and last doses of ferric maltol were taken in the presence of the investigator. Children took each dose with a glass of water 1 hour before or 2 hours after a meal. Doses were based on daily elemental iron requirements for the broad range of body weights of participants likely to be enrolled, with the aim of finding a minimum effective dose in this age group. The 30 mg b.d. adult dosage was chosen as the highest exposure; dosages of 16.6 mg b.d. and 7.8 mg b.d. were chosen as approximately one-half and one-quarter of the adult dose, respectively, with the exact dose depending on the full fill of available capsule shell sizes.
The primary objectives were to assess iron uptake and ferric maltol pharmacokinetics. Serum iron and TSAT provided measures of iron uptake. In adults, dissociated maltol undergoes rapid glucuronidation and is cleared in urine as maltol glucuronide (36); therefore, in this study, plasma maltol glucuronide was measured to confirm the rate of clearance in children. The secondary objective was to assess the safety and tolerability of ferric maltol in terms of vital signs, AEs, concomitant medications, 12-lead electrocardiograms, and clinical laboratory blood tests.
Safety analyses were conducted in all patients who received at least 1 dose of the study medication and had at least 1 subsequent visit (the safety population). […] Clinically significant changes from baseline in vital signs, physical examination, and routine clinical laboratory abnormalities were also recorded.

Cc1occc(=O)c1[O-].Cc1occc(=O)c1[O-].Cc1occc(=O)c1[O-].[Fe+3] [Ferric maltol]
Patients with a TEAE: Papule (30 mg b.d. (n = 12)): 1 (8.3) n (%)
Patients with a TEAE: Pyrexia (30 mg b.d. (n = 12)): 1 (8.3) n (%)
Patients with a TEAE: Skin abrasion (30 mg b.d. (n = 12)): 0 (0.0) n (%)
Patients with a TEAE: Sneezing (30 mg b.d. (n = 12)): 0 (0.0) n (%)
Patients with a TEAE: Tonsillitis (30 mg b.d. (n = 12)): 0 (0.0) n (%)
Patients with a TEAE: Vomiting (30 mg b.d. (n = 12)): 0 (0.0) n (%)
TEAEs by system organ class: Cardiac disorders (30 mg b.d. (n = 12)): 0 (0.0) n (%)
TEAEs by system organ class: Gastrointestinal disorders (30 mg b.d. (n = 12)): 6 (50.0) n (%)
TEAEs by system organ class: General disorders and administration-site conditions (30 mg b.d. (n = 12)): 2 (16.7) n (%)
TEAEs by system organ class: Injury, poisoning, and procedural complications (30 mg b.d. (n = 12)): 1 (8.3) n (%)
TEAEs by system organ class: Neoplasms benign, malignant, and unspecified (30 mg b.d. (n = 12)): 0 (0.0) n (%)
TEAEs by system organ class: Nervous system disorders (30 mg b.d. (n = 12)): 5 (41.7) n (%)
TEAEs by system organ class: Respiratory, thoracic, and mediastinal disorders (30 mg b.d. (n = 12)): 1 (8.3) n (%)
TEAEs by system organ class: Skin and subcutaneous-tissue disorders (30 mg b.d. (n = 12)): 1 (8.3) n (%)
Patients With an AE: Any AE (30 mg b.d. (n = 12)): 7 (58.3) n (%)
Patients With an AE: Any SAE (Total, all doses (N = 37)): 0 (0.0) n (%)
Patients With an AE: Any TEAE (Total, all doses (N = 37)): 20 (54.1) n (%)
Patients With an AE: TEAE leading to study discontinuation (Total, all doses (N = 37)): 1 (2.7) n (%)
Patients With an AE: TEAE related to study drug (Total, all doses (N = 37)): 9 (24.3) n (%)
Patients with a TEAE: Abdominal distension (Total, all doses (N = 37)): 1 (2.7) n (%)
Patients with a TEAE: Abdominal pain (Total, all doses (N = 37)): 1 (2.7) n (%)
Patients with a TEAE: Anal incontinence (Total, all doses (N = 37)): 1 (2.7) n (%)
Patients with a TEAE: Cellulitis (Total, all doses (N = 37)): 1 (2.7) n (%)
Patients with a TEAE: Constipation (Total, all doses (N = 37)): 1 (2.7) n (%)
Patients with a TEAE: Cough (Total, all doses (N = 37)): 2 (5.4) n (%)
Patients with a TEAE: Diarrhea (Total, all doses (N = 37)): 3 (8.1) n (%)
Patients with a TEAE: Dizziness (Total, all doses (N = 37)): 3 (8.1) n (%)
Patients with a TEAE: Dyspepsia (Total, all doses (N = 37)): 1 (2.7) n (%)
Patients with a TEAE: Dyspnea (Total, all doses (N = 37)): 1 (2.7) n (%)
Patients with a TEAE: Fatigue (Total, all doses (N = 37)): 4 (10.8) n (%)
Patients with a TEAE: Feces discolored (Total, all doses (N = 37)): 5 (13.5) n (%)
Patients with a TEAE: Granuloma skin (Total, all doses (N = 37)): 1 (2.7) n (%)
Patients with a TEAE: Headache (Total, all doses (N = 37)): 7 (18.9) n (%)
Patients with a TEAE: Injection-site pain (Total, all doses (N = 37)): 1 (2.7) n (%)
Patients with a TEAE: Lethargy (Total, all doses (N = 37)): 1 (2.7) n (%)
Patients with a TEAE: Ligament sprain (Total, all doses (N = 37)): 1 (2.7) n (%)
Patients with a TEAE: Lip dry (Total, all doses (N = 37)): 1 (2.7) n (%)
Patients with a TEAE: Nasal congestion (Total, all doses (N = 37)): 1 (2.7) n (%)
Patients with a TEAE: Nasopharyngitis (Total, all doses (N = 37)): 1 (2.7) n (%)
Patients with a TEAE: Nausea (Total, all doses (N = 37)): 2 (5.4) n (%)
Patients with a TEAE: Nevus hemorrhage (Total, all doses (N = 37)): 1 (2.7) n (%)
Patients with a TEAE: Palpitations (Total, all doses (N = 37)): 1 (2.7) n (%)
Patients with a TEAE: Papule (Total, all doses (N = 37)): 1 (2.7) n (%)
Patients with a TEAE: Pyrexia (Total, all doses (N = 37)): 1 (2.7) n (%)
Patients with a TEAE: Skin abrasion (Total, all doses (N = 37)): 1 (2.7) n (%)
Patients with a TEAE: Sneezing (Total, all doses (N = 37)): 1 (2.7) n (%)
Patients with a TEAE: Tonsillitis (Total, all doses (N = 37)): 1 (2.7) n (%)
Patients with a TEAE: Vomiting (Total, all doses (N = 37)): 2 (5.4) n (%)
TEAEs by system organ class: Cardiac disorders (Total, all doses (N = 37)): 1 (2.7) n (%)
TEAEs by system organ class: Gastrointestinal disorders (Total, all doses (N = 37)): 12 (32.4) n (%)
TEAEs by system organ class: General disorders and administration-site conditions (Total, all doses (N = 37)): 5 (13.5) n (%)
TEAEs by system organ class: Injury, poisoning, and procedural complications (Total, all doses (N = 37)): 2 (5.4) n (%)
TEAEs by system organ class: Neoplasms benign, malignant, and unspecified (Total, all doses (N = 37)): 1 (2.7) n (%)
TEAEs by system organ class: Nervous system disorders (Total, all doses (N = 37)): 9 (24.3) n (%)
TEAEs by system organ class: Respiratory, thoracic, and mediastinal disorders (Total, all doses (N = 37)): 4 (10.8) n (%)
TEAEs by system organ class: Skin and subcutaneous-tissue disorders (Total, all doses (N = 37)): 2 (5.4) n (%)
Patients With an AE: Any AE (Total, all doses (N = 37)): 21 (56.8) n (%)
Changes from baseline in vital signs or 12-lead electrocardiogram results (all doses): No clinically meaningful changes
Patients with laboratory abnormalities considered as TEAEs or SAEs (all doses): No patients
Children who experienced a TEAE (all doses, N = 37): 54%
Children with a TEAE related to the study drug (all doses, N = 37): 24%
Deaths or SAEs (all doses, N = 37): no deaths or SAEs
Drug-related TEAE anal incontinence (all doses, N = 37): 1 patient
Drug-related TEAE constipation (all doses, N = 37): 1 patient
Drug-related TEAE diarrhea (all doses, N = 37): 2 n
Drug-related TEAE dizziness (all doses, N = 37): 2 n
Drug-related TEAE dyspepsia (all doses, N = 37): 1 patient
Drug-related TEAE dyspnea (all doses, N = 37): 1 patient
Drug-related TEAE fatigue (all doses, N = 37): 2 n
Drug-related TEAE feces discoloration (all doses, N = 37): 5 n
Drug-related TEAE headache (all doses, N = 37): 3 n
Drug-related TEAE lethargy (all doses, N = 37): 1 patient
Drug-related TEAE nausea (all doses, N = 37): 1 patient
Drug-related TEAE palpitations (all doses, N = 37): 1 patient
Drug-related TEAE papule (all doses, N = 37): 1 patient
Gastrointestinal TEAEs, overall (all doses, N = 37): 32%
Nervous system disorders TEAEs, overall (all doses, N = 37): 24%
TEAE abdominal distension, number of children (all doses, N = 37): 1 n
TEAE abdominal pain, number of children (all doses, N = 37): 1 n
TEAE anal incontinence, number of children (all doses, N = 37): 1 n
TEAE constipation, number of children (all doses, N = 37): 1 n
TEAE diarrhea, number of children (all doses, N = 37): 3 n
TEAE dizziness, number of children (all doses, N = 37): 3 n
TEAE dyspepsia, number of children (all doses, N = 37): 1 n
TEAE fecal discoloration, number of children (all doses, N = 37): 5 n
TEAE headache, number of children (all doses, N = 37): 7 n
TEAE lethargy, number of children (all doses, N = 37): 1 n
TEAE nausea, number of children (all doses, N = 37): 2 n
TEAE vomiting, number of children (all doses, N = 37): 2 n
Children who experienced a TEAE (all doses, N = 37, listed as ferric maltol): 54.1%
Severity of TEAEs (all doses, all recovered or resolved): mild or moderate

Reference: publication PMC10191551, “Safety, Tolerability, and Pharmacokinetics of Oral Ferric Maltol in Children With Iron Deficiency: Phase 1 Study” (JPGN Reports, 2021)
